Results published in patent publication US6953786B2, “Compositions comprising plant-derived polyphenolic compounds and inhibitors of reactive oxygen species and methods of using thereof” (The Regents of the University of California, priority 2002, dated 2005).

Assays:
BSp73AS cells = assay: Mitochondrial membrane potential, DiOC6(3) retention; assay type: cell-based, rat; conditions: 6 hours (FIG. 10A)
Method: (§1) In order to determine the effects polyphenolic compounds have on mitochondrial membrane potential, the retention of the dye 3,3′-dihexyloxacarbocyanine (DiOC6(3)) was measured as described by Pastorino J G, et al. (1998) J Biol Chem 273:7770-7775, which is herein incorporated by reference. BSp73AS cells were cultured for 6 hours in the absence (control) or presence of 0, 12, 24, 50, and 100 μM quercetin and trans-resveratrol. The cells were loaded with 1 μM DiOC6(3) during the last 30 minutes of treatment with a polyphenolic compound (or vehicle). The cells were then collected and pelleted by centrifugation. The supernatant was removed and the pellet was washed twice with PBS by alternate centrifugation and resuspension. The pellet was then lysed by addition of 1 ml of H2O and homogenized. The concentration of DiOC6(3) was read on a Perkin-Elmer LS-5 fluorescence spectrometer at 488 nm excitation and 500 nm emission. An aliquot of the cells was used for determining the DiOC6(3) fluorescence that was retained by the cells.

Mia PACA-2 cells = assay: as above; assay type: cell-based, human
Method: as §1
Mia PACA-2 cells were cultured for 72 hours in the presence of serum and trans-resveratrol or genistein in the presence or absence of DPI or Tiron. Mitochondrial membrane potential was measured as described above.

cytochrome c = assay: Mitochondrial cytochrome c release (Western blot); assay type: cell-based, human; conditions: Mia PACA-2, 24 hours, 100 μM, no serum
Method: In order to determine the effects polyphenolic compounds have on mitochondrial cytochrome c release and apoptosis, the following assay was conducted. BSp73AS cells were cultured for 6 hours and Mia PACA-2 cells were cultured in the absence of serum or growth factors for 24 hours in the absence or presence of 100 μM of each rutin, trans-resveratrol, genistein, or quercetin. Cells were washed twice with ice-cold PBS, pH 7.2 and resuspended in extraction buffer, about 500 μl, comprising 20 mM HEPES-KOH (pH 7.0), 10 mM KCl, 1 mM NaEGTA, 2 mM MgCl2, 1 mM EDTA, 1 mM DTT, 250 mM sucrose, 1 mM PMSF and protease inhibitors cocktail as provided above. The lysate was incubated for 30 minutes on ice and then homogenized using a glass dounce (80 strokes). Nuclei were removed by centrifugation at 1,000 g for 10 minutes at 4° C. Supernatant was additionally centrifuged for 1 hour at 100,000 g and the resulting supernatant (cytosolic fraction) and pellet (mitochondrial fraction) were collected separately, subjected to SDS-PAGE, and Western blotting using an antibody against cytochrome c. The experiment was repeated twice with similar results.
In order to determine the role of the cancer cell's PTP in the effects of the polyphenolic compounds on mitochondrial function, caspase-3 activation and apoptosis, we performed the following experiments. Mia PACA-2 cells were cultured in the absence of serum or growth factors for 24 hours in the presence or absence of quercetin (100 μM), trans-resveratrol (100 μM), Z-VAD FMK (50 μM), cyclosporin A (5 μM) and/or aristolochic acid (50 μM). Cells were collected, washed with ice-cold PBS and resuspended in lysis buffer comprising 0.5% Nonidet P-40 or manufactured by the name IGEPAL CA-630, 0.5 mM EDTA, 150 mM NaCl and 50 mM Tris at pH 7.5. Cell lysates were placed for 30 minutes on a rotator at 4° C. and then centrifuged for 15 minutes at 15,000 g. Cytosolic protein extracts (supernatants) were collected, protein concentrations were determined and the extracts were aliquoted and stored at −80° C. Cytosolic extracts were subjected to SDS-PAGE and Western blot was performed with an antibody against cytochrome c. Blots were then stripped and re-probed with an antibody against tubulin to confirm equal protein loading. The experiment was repeated twice with similar results.
In order to determine the effect of a combination of trans-resveratrol and quercetin on cytochrome c release and caspase-3 activity, the following was conducted. Mia PACA-2 cells were cultured in the absence of serum or growth factors for 24 hours in the presence or absence of trans-resveratrol (25 μM), quercetin (25 μM), or the combination of trans-resveratrol (25 μM) and quercetin (25 μM). Cytosolic extracts were prepared and subject to SDS-PAGE followed by protein transfer. Immunoblot was performed with an antibody against tubulin to confirm equal protein loading.

NF-κB = NF-κB DNA binding activity (EMSA / gel shift); assay type: cell-based, human; conditions: for NF-κB activation (DNA binding): Mia PACA-2, 24 hours, no serum, polyphenols 100 μM, MG-132 20 μM; for NF-κB activation caused by serum: Mia PACA-2, 72 hours, with serum, DPI 15 μM, trans-resveratrol 100 μM, genistein 100 μM, LY294002 50 μM
Method: In order to determine the role of activated NF-κB in the regulation of apoptosis caused by the polyphenolic compound, the following assay was conducted. BSp73AS cells were cultured for 6 hours and Mia PACA-2 cells were cultured in the absence of serum or growth factors for 24 hours in the absence (controls) or presence of rutin, quercetin, trans-resveratrol, or genistein, each at 100 μM and 20 μM proteosome inhibitor MG-132. Nuclear proteins were isolated and analyzed for NF-κB DNA binding activity with electrophoretic mobility shift assay (EMSA).
Specifically, aliquots of nuclear extracts with equal amount of protein, about 2 to about 10 μg, were mixed in 20 μl reactions with a buffer comprising 10 mM HEPES (pH 7.6), 50 mM KCl, 0.1 mM EDTA, 1 mM DTT, 10% (vol/vol) glycerol and 3 μg poly[d (I-C)]. After aliquots were equilibrated on ice for 5 minutes, binding reactions were stared by addition of 20-60,000 counts/min (20 fM) of ^32P-labeled DNA probes and allowed to proceed for 25-30 minutes at room temperature or up to 1 hour on ice. The oligonucleotide probe
containing the κB binding motif (underlined) was annealed to the complementary oligonucleotide with a 5′-G overhang and end-labeled using Klenow DNA polymerase I. The samples were electrophoresed at room temperature in 0.5×TBE buffer (1×TBE 89 mM Tris base, 89 mM boric acid and 2 mM EDTA) on nondenaturing 4.5% polyacrylamide gel at 200 V. Gels were dried and directly analyzed in the PhosphorImager (Molecular Dynamics, Sunnyvale, Calif.). The experiment was repeated twice.
To study the effects of combinations of DPI and polyphenolic compounds on serum-induced activation of NF-κB and protection from apoptosis, the following assay was conducted. Mia PACA-2 cells were cultured for 72 hours in the presence of serum with or without 100 μM trans-resveratrol, 15 μM DPI, a combination of trans-resveratrol, 100 μM genistein, or a combination of genistein and DPI. NF-κB binding activity was measured in nuclear extracts by gel shift assay as described above.
To determine the effects of LY29400 and DPI on NF-κB activation, Mia PACA-2 cells were cultured for 72 hours in the presence of serum and 15 μM DPI with or without 50 μM LY294002. NF-κB DNA binding activity was measured in nuclear extracts by gel shift assay as described above.

[1] = Mia PACA-2, 72 hours, in the presence of serum (FIG. 11)
[2] = Mia PACA-2, no serum (FIG. 10B)

O=c1c(-c2ccc(O)cc2)coc2cc(O)cc(O)c12 [genistein]
mitochondrial membrane potential (BSp73AS cells): caused dissipation of the mitochondrial membrane potential | mitochondrial membrane potential (Mia PACA-2 cells; [1]): no effects on mitochondrial membrane potential | mitochondrial membrane potential (Mia PACA-2 cells; [2]): caused dissipation of the mitochondrial membrane potential | cytosolic and mitochondrial cytochrome c (cytochrome c): caused increases in cytosolic cytochrome c and decreases in mitochondrial cytochrome c | NF-κB activation (DNA binding) (NF-κB): has no effect on NF-κB | NF-κB activation caused by serum (NF-κB): not inhibited

O=c1c(O)c(-c2ccc(O)c(O)c2)oc2cc(O)cc(O)c12 [quercetin]
mitochondrial membrane potential (BSp73AS cells): caused dissipation of the mitochondrial membrane potential | mitochondrial membrane potential (Mia PACA-2 cells; [2]): caused dissipation of the mitochondrial membrane potential | cytosolic and mitochondrial cytochrome c (cytochrome c): caused increases in cytosolic cytochrome c and decreases in mitochondrial cytochrome c | NF-κB activation (DNA binding) (NF-κB): inhibit NF-κB activation

Oc1ccc(/C=C/c2cc(O)cc(O)c2)cc1 [trans-resveratrol]
mitochondrial membrane potential (BSp73AS cells): caused dissipation of the mitochondrial membrane potential | mitochondrial membrane potential (Mia PACA-2 cells; [1]): no effects on mitochondrial membrane potential | mitochondrial membrane potential (Mia PACA-2 cells; [2]): caused dissipation of the mitochondrial membrane potential | cytosolic and mitochondrial cytochrome c (cytochrome c): caused increases in cytosolic cytochrome c and decreases in mitochondrial cytochrome c | NF-κB activation (DNA binding) (NF-κB): inhibit NF-κB activation | NF-κB activation caused by serum (NF-κB): not inhibited
